{"source": "patent US6416791B1", "about": "“Alimentary integrator” (priority 1999, dated 2002)", "key": {"[1]": {"test_system": "patients (symptoms of the disease)", "test": "comparison testing of symptom changes in patients treated with potassium citrate or potassium tartarate", "format": "in vivo, human", "conditions": "FIGS. 6 and 7; 4 patients per compound; base condition, 10th and 20th day", "description": "The substitution of one or more components of the compound causes an inefficacy of the relevant different compound.\nThe graph of FIG. 6 is relevant to the changes in symptoms among 4 patients treated using potassium citrate, while the graph of FIG. 7 is relevant to the changes in symptoms among 4 patients treated using potassium tartarate. Similarly to the graph of FIG. 5, on abscissa each graph presents the different symptoms; from left to right-thoracic pain, abdominal pain, osteomuscular pain-dyspnea, cough, nausea, emesis, ascites, temperature, asthenia. The columns are composed by three secondary columns which refer to the different time of recording of the data, with 10 days interval; from left to right base condition (at the beginning of the treatment), at 10th day and at 20th day. Also in these cases the rate utilized as ordinate in the graph is relevant to the intensity (amount) of the symptoms."}, "[2]": {"test": "water solubility of the salt", "format": "physicochemical"}, "[3]": {"test": "stability of the salt (oxidizability)", "format": "physicochemical", "conditions": "due to its easy oxidizability"}, "[4]": {"test": "toxicity at the stated dosages", "conditions": "given the stated dosages; long-term use"}, "[5]": {"test_system": "patients suffering from different types of neoplasia in advanced phase", "test": "testing of potassium ribose ascorbate, given three times a day, in 30 terminally-ill neoplasia patients for more than ten years", "format": "in vivo, human", "procedure": "In FIGS. 2-5 and 8-11 are shown the results of a testing carried out for more than ten years. The testing was carried out on a sample of 30 patients suffering from different types of neoplasia in advanced phase (terminally-ill patients).\nThe patients were given potassium ribose ascorbate three times a day.\nThe integrator of the present invention not only allows a good survival percentage but also improves the symptoms of the diseases. In FIG. 5 is a graph showing the changes in ten symptoms among the patients above mentioned. On abscissa the graph presents the different symptoms; from left to right thoracic pain, abdominal pain, osteomuscular pain, dyspnea, cough, nausea, emesis, ascites, temperature, asthenia. Every column is composed by five secondary columns which refer to the different time of recording of the data, with 15 days interval, from left to right: base condition (at the beginning of the treatment), at 15th day, at 30th day, at 45th and at 60th day The rate utilized as ordinate in the graph is relevant to the intensity (amount) of the symptoms. This rate is a normalized value among the different rates utilized for measuring the ten symptoms (i.e. degrees for the temperature, an objective value for pain, cough, etc). A higher rate means a higher means intensity of the symptom.\nIn particular, FIG.8 is relevant to the mean changes in the hemoglobin rate, in the graph, the abscissa is divided in steps corresponding to 15 days intervals, while the ordinate is expressed in g/dl. FIG. 9 is relevant to the mean changes in the white cells number; in the graph, the abscissa is divided in steps corresponding to 15 days intervals, while the ordinate is expressed in number of cells. FIG. 10 is relevant to the mean changes in the red cells number; in the graph, the abscissa is divided in steps corresponding to 15 days intervals, while the ordinate is expressed in thousands of cells. FIG. 11 is relevant to the mean changes in the erythrosedimentation rate at first hour; in the graph, the abscissa is divided in steps corresponding to 15 days intervals, while the ordinate is expressed in erythrosedimentation rate."}}, "data": [{"molecule": "O=C([O-])CC(O)(CC(=O)[O-])C(=O)[O-].[K+].[K+].[K+]", "note": "[potassium citrate]", "values": [{"measurement": "change in intensity of ten symptoms", "setting": "[1]", "result": "substantially increasing symptoms rate"}]}, {"molecule": "O=C([O-])C(O)C(O)C(=O)[O-].[K+].[K+]", "note": "(stereo not shown) [potassium tartarate]", "values": [{"measurement": "change in intensity of ten symptoms", "setting": "[1]", "result": "substantially increasing symptoms rate"}]}, {"molecule": "potassium ribosate", "values": [{"measurement": "solubility in water", "setting": "[2]", "result": "easily water-soluble"}, {"measurement": "stability", "setting": "[3]", "result": "somewhat unstable"}, {"measurement": "toxicity", "setting": "[4]", "result": "does not produce any toxicity"}]}, {"molecule": "potassium ribose ascorbate", "values": [{"measurement": "survival percentage after five years", "setting": "[5]; FIG. 2, terminally-ill patients, by location of neoplasia: brain, breast, lung, ovary, prostate, skin", "result": "very high"}, {"measurement": "survival percentage after ten years", "setting": "[5]; FIG. 3, terminally-ill patients, by location of neoplasia: brain, breast, lung, ovary, prostate, skin", "result": "very high"}, {"measurement": "change in intensity of ten symptoms (thoracic, abdominal, osteomuscular pain, dyspnea, cough, nausea, emesis, ascites, temperature, asthenia)", "setting": "[5]; FIG. 5, normalized rate, base condition, 15th, 30th, 45th and 60th day", "result": "all symptoms decreased"}, {"measurement": "mean changes in the hemoglobin rate", "setting": "[5]; FIG. 8, 15 days intervals, ordinate in g/dl", "result": "increasing rates"}, {"measurement": "mean changes in the white cells number", "setting": "[5]; FIG. 9, 15 days intervals, ordinate in number of cells", "result": "increasing rates"}, {"measurement": "mean changes in the red cells number", "setting": "[5]; FIG. 10, 15 days intervals, ordinate in thousands of cells", "result": "increasing rates"}, {"measurement": "mean changes in the erythrosedimentation rate at first hour", "setting": "[5]; FIG. 11, 15 days intervals", "result": "decreasing rate"}, {"measurement": "stability", "setting": "[3]", "result": "somewhat unstable"}]}]}
